The data set can be described thus: Oral bioavailability in human. It counts as ADME, organism-based. The note with it: in vivo.

Each structure is given as a SMILES string.

On to `CCC(CC)O[C@@H]1C=C(C(=O)O)C[C@H](N)[C@H]1NC(C)=O` [OSELTAMIVIR CARBOXYLATE], for which the bioavailability (as a rule, dose-corrected exposure relative to a reference, in per cent) turned out to be 5%.

`CCOC(=O)C1=C[C@@H](OC(CC)CC)[C@H](NC(C)=O)[C@@H](N)C1` [OSELTAMIVIR] came in with a bioavailability of 80%.

The values above are taken from ChEMBL document CHEMBL4007385, “Prodrug approach: An overview of recent cases” (Eur J Med Chem, 2017).
